The structures appear in SMILES notation. pEC50, pIC50: −log10 of the molar value.

One experiment deals with human 5-HT1B receptor (Homo sapiens, UniProt P28222). The experiment in a line: GTPγS agonist assay, 5-HT1B.
Experiment [1] relates to Glutamate (mGlu3/mGlu5/mGlu7). The experiment in a line: Glutamate receptor screen (Aequorin mGlu3/mGlu5, cAMP mGlu7). The experiment is classed as cell-based, human. As to the method:
For mGlu3 and mGlu5, CHO-K1 cells coexpressing mitochondrial apoaequorin and recombinant human receptor grown to mid-log phase in culture media without antibiotics and supplemented with doxycycline, (final concentration of 600 ng doxycycline/mL), was detached with PBS-EDTA, centrifuged and resuspended in assay buffer (HBSS, 2.1 mM CaCl2, 3 μg/mL GPT (Glutamate-Pyruvate transaminase), 4 mM MEM Sodium Pyruvate, 0.1% BSA protease free) at a concentration of 1×10^6 cells/mL. Cells were incubated at room temperature for at least 4 hours with coelenterazine h. Reference agonist/antagonist was tested to evaluate the performance of the assay and to determine EC50/IC50. […]
Cells expressing the human recombinant receptor of interest were grown in media without antibiotic and detached by gentle flushing with PBS-EDTA (5 mM EDTA), recovered by centrifugation and resuspended in assay buffer (KRH: 5 mM KCl, 1.25 mM MgSO4, 124 mM NaCl, 25 mM HEPES, 13.3 mM glucose, 1.25 mM KH2PO4, 1.45 mM CaCl2, 0.5 g/L BSA). […] Lysis buffer was added and after a 1 hour incubation, cAMP concentrations was determined according to the manufacturer specification with the HTRF kit. […] Lysis buffer was added and after a 1 hour incubation, cAMP concentrations were determined according to the manufacturer specification, with the HTRF kit.

The next experiment addresses human α2A receptor (Homo sapiens, UniProt P08913). The experiment in a line: GTPγS antagonist assay, α2A. Format: biochemical. As to conditions: read-out: IC50, α2A antagonism.

Chain of human 5-HT1B receptor (P28222 whole entry): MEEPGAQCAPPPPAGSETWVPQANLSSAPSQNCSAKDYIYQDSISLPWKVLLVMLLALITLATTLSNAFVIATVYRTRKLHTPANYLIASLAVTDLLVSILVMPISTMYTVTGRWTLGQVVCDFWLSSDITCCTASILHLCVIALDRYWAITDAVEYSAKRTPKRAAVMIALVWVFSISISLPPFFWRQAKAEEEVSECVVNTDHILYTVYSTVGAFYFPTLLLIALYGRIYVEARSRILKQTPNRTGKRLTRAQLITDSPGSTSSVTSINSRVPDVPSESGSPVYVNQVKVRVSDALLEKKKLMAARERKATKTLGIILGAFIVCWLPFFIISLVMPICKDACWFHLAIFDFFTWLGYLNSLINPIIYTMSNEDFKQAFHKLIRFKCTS
Chain of human α2A receptor (P08913 whole entry): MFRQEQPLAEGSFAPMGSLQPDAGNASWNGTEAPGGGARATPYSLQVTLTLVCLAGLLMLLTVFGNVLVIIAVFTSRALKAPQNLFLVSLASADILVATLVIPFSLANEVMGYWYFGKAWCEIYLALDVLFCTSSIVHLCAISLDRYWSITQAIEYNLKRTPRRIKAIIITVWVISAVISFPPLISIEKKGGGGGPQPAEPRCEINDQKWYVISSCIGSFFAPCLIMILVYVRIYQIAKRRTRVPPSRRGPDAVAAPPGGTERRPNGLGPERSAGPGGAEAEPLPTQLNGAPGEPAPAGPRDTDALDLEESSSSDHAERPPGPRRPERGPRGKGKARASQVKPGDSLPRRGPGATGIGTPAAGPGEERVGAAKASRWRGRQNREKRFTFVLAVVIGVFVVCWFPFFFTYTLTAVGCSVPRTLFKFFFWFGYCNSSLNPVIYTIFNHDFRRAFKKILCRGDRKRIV
Method for human 5-HT1B receptor: The mixture was shaken for 2 minutes prior to a 60 min incubation. It was then centrifuged for 10 minutes and counted for 1 minute with a Perkin Elmer TopCount reader. The resulting emission of light was recorded using a luminometer. Agonist percentage activation determinations were obtained by comparing with the Emax of the reference agonist α-methyl-5-HT.

On to `CN1C[C@H](C(=O)N[C@]2(C)O[C@@]3(O)[C@@H]4CCCN4C(=O)[C@H](Cc4ccccc4)N3C2=O)CC2c3cccc4[nH]c(C(F)(F)F)c(c34)CC21` (stereo partly drawn) [2-CF3-dihydroergotamine], for which the pEC50 – broadly, the EC50 on a negative log10 scale, so that one unit is a factor of ten – at human 5-HT1B receptor was 6.39. Also, in experiment [1], the “Activity (Agonism: EC50; Antagonism: IC50)” value was “Inactive”. Moreover, on human α2A receptor, the pIC50 (as a rule, the IC50 on a negative log10 scale, so that one unit is a factor of ten) was 6.39.
